{"source": "patent US20050256188A1", "about": "“Formulations of anthraquinone derivatives” (priority 2002, published 2005)", "key": {"[1]": {"conditions": "cited from earlier work; for pKa at 25° C.: Table 1, pKa index not given; for pKa at 25° C. (pKa1): Table 1, pKa1; for pKa1 of acid used to prepare AQ4N disalt: value of the free acid, from IUPAC Handbook of Pharmaceutical Salts"}, "[2]": {"assay": "pH of AQ4N salts in aqueous solution", "format": "physicochemical", "conditions": "1.4 mM in water; in Table 4 the label is the acid whose AQ4N disalt was measured", "experimental": "Stock solutions of individual AQ4N salts were prepared by transferring about 1 mg, accurately weighed, and diluting with water to obtain solutions of 1.4 mM. The solution was vortexed for 3 min using a Fisons WhirlMixer™ (Loughborough, Leicestershire, UK). All AQ4N salt solutions were prepared on the same day as determination of the pH value of the solutions, which was done using a digital pH meter (calibrated at 21±1° C. with standard buffers of pH 7.00 and 4.00 from BDH (UK)."}, "[3]": {"assay": "Degradation of AQ4N dihydrochloride in solution at 40° C.: accumulation of AQMN (HPLC)", "format": "physicochemical", "conditions": "for AQMN increase per day: 14 days, % w.r.t. AQ4N", "description": "The degradation of AQ4N was investigated using 5 mg/ml solutions of AQ4N at a pH of 2.4, 4.5 and 6.8, which equated to water, 20 mM sodium acetate buffer and 20 mM sodium orthophosphate buffer, respectively. The primary degradation pathway of AQ4N is its conversion to AQMN. The increase in AQMN concentration in 5 mg/ml solutions incubated at 40° C. over an intermediate time period (14 days) is shown in FIG. 3.\nThe effect of pH on the stability of AQ4N was determined by investigating AQ4N degradation in different solutions. The solutions chosen were again distilled water, 20 mM sodium acetate buffer (pH=4) and 20 mM sodium phosphate buffer (pH=7). After preparation of the 5 mg/ml AQ4N buffered solutions the pH was corrected to the required pH of the buffer. The final pHs were 2.4, 4.5 and 6.8 for the distilled water, 20 mM sodium acetate buffer and 20 mM sodium phosphate buffer, respectively. The samples were incubated at 40° C. and sampled at regular intervals. Assay was carried out by sample dilution followed by HPLC analysis."}}, "note": "Where a SMILES comes first, the peptide text is derived from it."}
{"molecule": "OCCN(CCO)C(CO)(CO)CO", "note": "[Bis(2-hydroxyethyl)iminotris(hydroxymethyl)methane]", "values": [{"measurement": "pKa at 25° C.", "setting": "[1]", "result": 6.46}]}
{"molecule": "C/C=C/C=C/C(=O)O", "note": "[Sorbic]", "values": [{"measurement": "pKa at 25° C.", "setting": "[1]", "result": 4.76}]}
{"molecule": "O=C(O)C(O)C(O)C(=O)O", "note": "(centres unmarked) [Tartaric, tartaric acid]", "values": [{"measurement": "measured pH of AQ4N di-salt solutions (1.4 mM)", "setting": "[2]", "result": 2.8}]}
{"molecule": "O=C(O)c1cc(C(=O)O)c(C(=O)O)c(C(=O)O)c1C(=O)O", "note": "[Benzenepentacarboxylic]", "values": [{"measurement": "pKa at 25° C. (pKa1)", "setting": "[1]", "result": "2.34 (pKa1)"}]}
{"molecule": "CC(O)C(=O)O", "note": "(racemic) [Lactic, Lactic acid]", "values": [{"measurement": "measured pH of AQ4N di-salt solutions (1.4 mM)", "setting": "[2]", "result": 3.5}]}
{"molecule": "AQ4N di-benzenesulfonate [Example 6]", "values": [{"measurement": "measured pH of AQ4N di-salt solutions (1.4 mM)", "setting": "[2]", "result": 2.4}]}
{"molecule": "NCC(=O)NCC(=O)O", "note": "[Glycylglycine] (H-Gly-Gly-OH)", "values": [{"measurement": "pKa at 25° C.", "setting": "[1]", "result": 3.06}]}
{"molecule": "AQ4N di-acetate [Example 14]", "values": [{"measurement": "measured pH of AQ4N di-salt solutions (1.4 mM)", "setting": "[2]", "result": 3.8}]}
{"molecule": "CC(=O)O", "note": "[Acetic, acetic acid]", "values": [{"measurement": "measured pH of AQ4N di-salt solutions (1.4 mM)", "setting": "[2]", "result": 3.8}]}
{"molecule": "C[N+](C)([O-])CCNc1ccc(NCC[N+](C)(C)[O-])c2c1C(=O)c1c(O)ccc(O)c1C2=O.Cl.Cl", "note": "[AQ4N dihydrochloride]", "values": [{"measurement": "measured pH of AQ4N di-salt solutions (1.4 mM)", "setting": "[2]", "result": 2.4}, {"measurement": "AQMN increase per day", "setting": "[3]; 20 mM sodium acetate buffer, pH 4.5, 5 mg/ml solution", "result": 0.19, "unit": "%"}, {"measurement": "AQMN increase per day", "setting": "[3]; 20 mM sodium orthophosphate buffer (PO4), pH 6.8, 5 mg/ml solution", "result": 0.02, "unit": "%"}, {"measurement": "AQMN increase per day", "setting": "[3]; H2O, pH 2.4, 5 mg/ml solution", "result": 0.84, "unit": "%"}, {"measurement": "AQMN increase per month", "setting": "[3]; phosphate buffer, 5 mg/ml solution, 63 days", "result": 0.6, "unit": "%"}]}
{"molecule": "AQ4N di-pimelate [Example 13]", "values": [{"measurement": "measured pH of AQ4N di-salt solutions (1.4 mM)", "setting": "[2]", "result": 3.8}]}
{"molecule": "O=C(O)CC(=O)O", "note": "[Malonic, malonic acid]", "values": [{"measurement": "measured pH of AQ4N di-salt solutions (1.4 mM)", "setting": "[2]", "result": 2.8}]}
{"molecule": "O=C1CC(=O)NC(=O)N1", "note": "[Barbituric]", "values": [{"measurement": "pKa at 25° C.", "setting": "[1]", "result": 3.98}]}
{"molecule": "O=C(O)c1ccccc1C(=O)O", "note": "[Phthalic]", "values": [{"measurement": "pKa at 25° C.", "setting": "[1]", "result": 2.90}]}
{"molecule": "O=S(=O)(O)c1ccccc1", "note": "[Benzenesulfonic, benzenesulfonic acid]", "values": [{"measurement": "measured pH of AQ4N di-salt solutions (1.4 mM)", "setting": "[2]", "result": 2.5}, {"measurement": "pKa1 of acid used to prepare AQ4N disalt", "setting": "[1]", "result": "−2.5"}]}
{"molecule": "AQ4N di-dichloroacetate [Example 7]", "values": [{"measurement": "measured pH of AQ4N di-salt solutions (1.4 mM)", "setting": "[2]", "result": 2.5}]}
{"molecule": "O=C(O)CCCCCC(=O)O", "note": "[Pimelic, pimelic acid]", "values": [{"measurement": "measured pH of AQ4N di-salt solutions (1.4 mM)", "setting": "[2]", "result": 3.8}, {"measurement": "pKa at 25° C.", "setting": "[1]", "result": 4.48}, {"measurement": "pKa1 of acid used to prepare AQ4N disalt", "setting": "[1]", "result": 4.48}]}
{"molecule": "C=C(CC(=O)O)C(=O)O", "note": "[Itaconic]", "values": [{"measurement": "pKa at 25° C. (pKa1)", "setting": "[1]", "result": "3.84 (pKa1)"}]}
{"molecule": "COc1cc2c(cc1OC)[C@@]13CCN4CC5=CCO[C@H]6CC(=O)N2[C@H]1[C@H]6[C@H]5C[C@H]43.O.O.O.O", "note": "[Brucine tetrahydrate]", "values": [{"measurement": "pKa at 25° C. (pKa1)", "setting": "[1]", "result": "2.30 (pKa1)"}]}
{"molecule": "O=C(O)c1cccc(C(=O)O)c1C(=O)O", "note": "[Benzene-1,2,3-tricarboxylic (hemimellitic)]", "values": [{"measurement": "pKa at 25° C. (pKa1)", "setting": "[1]", "result": "2.98 (pKa1)"}]}
{"molecule": "O=C(O)c1cc(C(=O)O)cc(C(=O)O)c1", "note": "[Benzene-1,3,5-tricarboxylic (trimesic)]", "values": [{"measurement": "pKa at 25° C. (pKa1)", "setting": "[1]", "result": "3.16 (pKa1)"}]}
{"molecule": "O=C(O)CC(O)(CC(=O)O)C(=O)O", "note": "[Citric, citric acid]", "values": [{"measurement": "measured pH of AQ4N di-salt solutions (1.4 mM)", "setting": "[2]", "result": 3.3}]}
{"molecule": "CC(CC(=O)O)(CC(=O)O)C(=O)O", "note": "[2-Methylpropane-1,2,3-triscarboxylic]", "values": [{"measurement": "pKa at 25° C. (pKa1)", "setting": "[1]", "result": "3.53 (pKa1)"}]}
{"molecule": "O=C(O)CC(O)C(=O)O", "note": "(centres unmarked) [Malic]", "values": [{"measurement": "pKa at 25° C. (pKa1)", "setting": "[1]", "result": "3.40 (pKa1)"}, {"measurement": "pKa at 25° C. (pKa2)", "setting": "[1]; Table 1, pKa2", "result": "5.05 (pKa2)"}]}
{"molecule": "Cl", "note": "[Hydrochloric, hydrochloric acid]", "values": [{"measurement": "measured pH of AQ4N di-salt solutions (1.4 mM)", "setting": "[2]", "result": 2.4}]}
{"molecule": "O=C(O)/C=C\\C(=O)O", "note": "[Maleic, maleic acid]", "values": [{"measurement": "measured pH of AQ4N di-salt solutions (1.4 mM)", "setting": "[2]", "result": 2.6}]}
{"molecule": "O=C(O)C(Cl)Cl", "note": "[Dichloroacetic, dichloroacetic acid]", "values": [{"measurement": "measured pH of AQ4N di-salt solutions (1.4 mM)", "setting": "[2]", "result": 2.4}]}
